Experimental findings from ChEMBL document CHEMBL1687828, “Extremely drug-resistant Citrobacter freundii isolate producing NDM-1 and other carbapenemases identified in a patient returning from India” (2011) are described below.

The subject of test [1] is Citrobacter freundii. In words: Antibacterial activity against drug-resistant Citrobacter freundii isolate producing metallo-beta-lactamase NDM-1 with carbapenemase activity isolated from urine culture of cerebral vascular malformation patient. Format: functional.
In test [2] the test system is Citrobacter freundii. In words: Antibacterial activity against drug-resistant Citrobacter freundii isolate producing metallo-beta-lactamase NDM-1 with carbapenemase activity isolated from urine culture of cerebral vascular malformation patient by Etest. Format: functional, organism-based.

Turning to `C[C@@H](O)[C@H]1C(=O)N2C(C(=O)O)=C(S[C@@H]3CN[C@H](C(=O)Nc4cccc(C(=O)O)c4)C3)[C@H](C)[C@H]12` [ERTAPENEM], the MIC (usually the smallest concentration in the dilution series that meets the test's criterion for growth inhibition) in the test with Citrobacter freundii [1] was above 32 mg/L.
Still for that read-out and setting: the figure for `C[C@@H](O)[C@H]1C(=O)N2C(C(=O)O)=C(SCCNC=N)C[C@H]12` [IMIPENEM ANHYDROUS] is above 32 mg/L; for `C[C@@H](O)[C@H]1C(=O)N2C(C(=O)O)=C(S[C@@H]3CN[C@H](C(=O)N(C)C)C3)[C@H](C)[C@H]12` [MEROPENEM] it is above 32 mg/L.
On to COLISTIN, for which, in the test with Citrobacter freundii [2], the lowest concentration to inhibit growth (MIC) was 0.5 mg/L.
